The text below walks through data of patent US8771965B2, “Methods and compositions involving nucleotide repeat disorders” (The Board of Regents of the University of Texas System, priority 2006, dated 2014).

What all share (type): cell-based, human
For one test, the system named is DM1 myoblasts. Kind of test: Myogenic differentiation of treated DM1 myoblasts in differentiation media (myotubes, myogenin, MyoD). From the text: The above findings supported the possibility that a significant amount of SKELETROPHIN remained bound with the mutant DMPK transcripts within DM1 nuclei, which results in diminished SKELETROPHIN activity in DM1. The attenuated SKELETROPHIN activity then manifests with an increase in JAGGED2 activity, leading to chronic activation of Notch signaling in DM1. Based on these findings we hypothesize that the activated Notch attenuates the ability of DM1 myoblasts to progress toward myogenic lineage, while facilitating their proliferation. To more critically test this idea, DMPK transcripts were targeted in DM1 myoblasts using siRNA and JAGGED2 and NOTCH1 expression was measured, in addition to an assessment of the cells' myogenic properties. DMPK transcripts were targeted to minimize interactions of SKELETROPHIN with CUG RNA, thereby increasing SKELETROPHIN activity. […] JAGGED2 and NOTCH1 levels were measured in the DMPK-siRNA-treated cells. […] In contrast, DM1 myoblasts treated with control siRNA formed fewer and shorter myotubes as well as basal myogenin expression under identical conditions.
Whether attenuating Notch signaling improves the myogenic potential of DM1 myoblasts was assessed. To achieve this goal, JAGGED2 was targeted in DM1 myoblasts with siRNA.
(§1) The above results support the idea that diminished SKELETROPHIN activity results in elevated Notch signaling and activated Notch impairs the efficacy of myoblast differentiation in DM1. To obtain more direct evidence for this interpretation, SKELETROPHIN was overexpressed in DM1 myoblasts and the Notch activity and their myogenic properties were assessed.
The progression of myogenesis was quantified by monitoring the expression of myogenic markers, myogenin and MyoD. […] In contrast, untreated DM1 myoblasts show reduced myogenin and MyoD even after prolonged incubation in differentiation media.

The test system of another test is γ-secretase. As to the kind of experiment: γ-secretase activity blocked in DM1 myoblasts, NOTCH1 level. The note with it: pharmacological inhibition of γ-secretase.
The next test relates to Notch signaling. Kind of test: SKELETROPHIN overexpression in DM1 myoblasts, Notch activity. The protocol: as §1

On to `CC(C)C[C@H](NC(=O)[C@H](Cc1ccccc1)C[C@@H](O)[C@H](Cc1ccccc1)NC(=O)OC(C)(C)C)C(=O)N[C@@H](Cc1ccccc1)C(N)=O` [L-685458], for which, in the test with DM1 myoblasts, the MyoD expression result was “increase”, the “formation of multinucleated myotubes” value is “higher propensity to form multi-nucleated myotubes” and the myogenin expression result was “increase”. In addition, the NOTCH1 level result in the test with γ-secretase is “dose-dependent reduction”.

B1: SKELETROPHIN: E3 ubiquitin ligase for Jagged2, overexpressed in DM1 myoblasts (protein, listed as Homo sapiens)
chain: MRWKCRVCLDYDLCTQCYMHNKHELAHAFDRYETAHSRPVTLSPRQGLPRIPLRGIFQGAKVVRGPDWEWGSQDGGEGKPGRVVDIRGWDVETGRSVASVTWADGTTNVYRVGHKGKVDLKCVGEAAGGFYYKDHLPRLGKPAELQRRVSADSQPFQHGDKVKCLLDTDVLREMQEGHGGWNPRMAEFIGQTGTVHRITDRGDVRVQFNHETRWTFHPGALTKALGRVGKVVKVFGDGNLRVAVAGQRWTFSPSCLVAYRPEEDANLDVAERARENKSSLSVALDKLRAQKSDPEHPGRLVVEVALGNAARALDLLRRRPEQVDTKNQGRTALQVAAYLGQVELIRLLLQARAGVDLPDDEGNTALHYAALGNQPEATRVLLSAGCRADAINSTQSTALHVAVQRGFLEVVRALCERGCDVNLPDAHSDTPLHSAISAGTGASGIVEVLTEVPNIDVTATNSQGFTLLHHASLKGHALAVRKILARARQLVDAKKEDGFTALHLAALNNHREVAQILIREGRCDVNVRNRKLQSPLHLAVQQAHVGLVPLLVDAGCSVNAEDEEGDTALHVALQRHQLLPLVADGAGGDPGPLQLLSRLQASGLPGSAELTVGAAVACFLALEGADVSYTNHRGRSPLDLAAEGRVLKALQGCAQRFRERQAGGGAAPGPRQTLGTPNTVTNLHVGAAPGPEAAECLVCSELALLVLFSPCQHRTVCEECARRMKKCIRCQVVVSKKLRPDGSEVASAAPAPGPPRQLVEELQSRYRQMEERITCPICIDSHIRLVFQCGHGACAPCGSALSACPICRQPIRDRIQIFV
As for B1, in the test with DM1 myoblasts, the “formation of multinucleated myotubes” value is recorded as “a large number of these myoblasts differentiated” and the myogenin expression result was “pronounced myogenin expressions”. In the test on Notch signaling, the NOTCH1 level entry is “significant reduction”. Besides, the Notch signaling entry in the test with Notch signaling (n=4, P=0.0031) is listed as “significant reduction”.
